# Experimental data as given in US8962574B2 (Boehringer Ingelheim International GmbH, priority 2008, dated 2015).
# Columns and labels:
# [1] = tested on: patients with chronic atrial fibrillation; assay: PETRO phase 2 12-week dose finding study; format: in vivo, human; details: 12 weeks
# Description: Primary endpoints were bleeding events and changes in D-dimer. […] Minor bleeding was dose related.
# [2] = tested on: patients with atrial fibrillation
# Description: PETRO-Ex began while the PETRO study was ongoing and investigators were initially kept blinded to patient treatment group until PETRO was completed. Unblinding investigators to patient treatment was possible thereafter.
# Data were summarized descriptively; no hypothesis was to be tested. Events were analyzed on the basis of the treatment at onset. Incidences were reported as number of patients with events as well as normalized to 100 patient-years on the respective treatment.
# Written, informed consent was obtained from all patients.
# Patients who completed PETRO on 50 mg b.i.d. were switched to 150 mg q.d. upon entry in the PETRO-Ex study (N=93 patients). […] Patients who were down titrated to 50 mg q.d. based on a glomerular filtration rate ≦50 mL/min during PETRO were excluded from the long-term trial; patients down-titrated in other dose levels remained on the q.d. treatment at that dose.
# The total exposure reflects both trials, PETRO and PETRO-Ex, together.
# [3] = tested on: activated partial thromboplastin time (aPTT), ecarin clotting time, and thrombin clotting time; assay: Coagulation tests
# [4] = tested on: patients with atrial fibrillation at risk of stroke; assay: RELY Clinical Trial, dabigatran 110 mg or 150 mg twice daily versus warfarin; format: in vivo
# Description: The primary study outcome was stroke or systemic embolism. The primary safety outcome was major hemorrhage. Secondary outcomes were stroke, systemic embolism and death. […] All other bleeding was considered minor.
# All analyses were based on intention-to-treat.
# [5] = of the 16 on treatment cases with AST or ALT >3×ULN
smiles,measurement,setting,value
[H]/N=C(/N)c1ccc(NCc2nc3cc(C(=O)N(CCC(=O)O)c4ccccn4)ccc3n2C)cc1 [dabigatran],Change in D-dimer levels,[1],comparable to warfarin
same,"Fatal bleeding events, rate",[2]; all doses,0.5 % per year
same,"LFT abnormality resolved after stopping, number of cases",[2]; [5],5
same,"LFT abnormality resolved with continuation, number of cases",[2]; [5],10
same,"Cases with an explanatory clinical diagnosis, number",[2]; of the 18 cases with AST or ALT >3×ULN,9
same,"Prolongation of aPTT, ecarin clotting time, and thrombin clotting time",[3],dose dependent prolongation
same,Rate of hemorrhagic stroke,[4]; 110 mg b.i.d.,0.12 % per year
same,"Rate of net benefit-risk outcome (major vascular events, major bleeding and death)",[4]; 110 mg b.i.d.,7.37 % per year
same,"Stroke, systemic embolism, pulmonary embolism, myocardial infarction death or major bleed (net benefit), Rate",[4]; 110 mg b.i.d.,7.37 /100 Person Years
same,"First Hospitalization, RR",[4]; 110 mg vs. Warfarin,0.92
same,"Non-disabling Stroke Modified Rankin 0-2, RR",[4]; 110 mg vs. Warfarin,0.87
same,"Stroke or systemic embolism, RR",[4]; 110 mg vs. Warfarin,0.91
same,"Stroke, Hemorrhagic, RR",[4]; 110 mg vs. Warfarin,0.31
same,"Stroke, RR",[4]; 110 mg vs. Warfarin,0.92
same,"Stroke, systemic embolism, pulmonary embolism, myocardial infarction death or major bleed (net benefit), RR",[4]; 110 mg vs. Warfarin,0.92
same,Rate of hemorrhagic stroke,[4]; 150 mg b.i.d.,0.10 % per year
same,"Rate of net benefit-risk outcome (major vascular events, major bleeding and death)",[4]; 150 mg b.i.d.,7.22 % per year
same,"Stroke, systemic embolism, pulmonary embolism, myocardial infarction death or major bleed (net benefit), Rate",[4]; 150 mg b.i.d.,7.22 /100 Person Years
same,"Stroke, Ischemic or Unspecified, RR",[4]; 150 mg vs. 110 mg,0.68
same,"Stroke, RR",[4]; 150 mg vs. 110 mg,0.70
same,"Stroke, systemic embolism, pulmonary embolism, myocardial infarction death or major bleed (net benefit), RR",[4]; 150 mg vs. 110 mg,0.98
same,"First Hospitalization, RR",[4]; 150 mg vs. Warfarin,0.97
same,"Non-disabling Stroke Modified Rankin 0-2, RR",[4]; 150 mg vs. Warfarin,0.62
same,"Stroke or systemic embolism, RR",[4]; 150 mg vs. Warfarin,0.66
same,"Stroke, Hemorrhagic, RR",[4]; 150 mg vs. Warfarin,0.26
same,"Stroke, Ischemic or Unspecified, RR",[4]; 150 mg vs. Warfarin,0.76
same,"Stroke, RR",[4]; 150 mg vs. Warfarin,0.64
same,"Stroke, systemic embolism, pulmonary embolism, myocardial infarction death or major bleed (net benefit), RR",[4]; 150 mg vs. Warfarin,0.90
